The source of these data is DBAASP.

Converted amounts (≈) assume the structure as drawn.

Common to all, as to experiment: ≥ marks a high value that may be exact or a test limit, other limits are often not marked, values filed in µg/mL are converted to µM
The subject of experiment [1] is Salmonella typhimurium DA6192.
In experiment [2] the test system is Pseudomonas aeruginosa ATCC 27853.
For experiment [3], the system named is Bacillus subtilis ATCC 6633.
Experiment [4] concerns Escherichia coli ATCC 15597.
The test system of experiment [5] is Klebsiella pneumoniae NCTC 5055.
Experiment [6] has as its system Micrococcus luteus ATCC 49732.
Experiment [7] concerns Staphylococcus aureus ATCC 6538.
Another experiment relates to Escherichia coli BW25113.

Turning to `CC[C@H](C)[C@H](N)C(=O)N[C@H](C(=O)N[C@@H](CCCCN)C(=O)N[C@H](C(=O)N[C@H](C(=O)N[C@@H](C)C(=O)N[C@@H](CCCCN)C(=O)N[C@@H](CC(C)C)C(=O)N[C@@H](CC(C)C)C(=O)N[C@@H](CC(N)=O)C(=O)N[C@@H](CCCN=C(N)N)C(=O)N[C@@H](CC(C)C)C(=O)N[C@H](C(=O)N[C@@H](CCCCN)C(=O)N[C@H](C(=O)N[C@@H](CC(C)C)C(=O)N[C@@H](CO)C(=O)N[C@@H](CCCCN)C(=O)O)[C@@H](C)CC)[C@@H](C)O)[C@@H](C)CC)C(C)C)[C@@H](C)O` [ITKVIAKLLNRLTKILSK], the MIC – broadly, the lowest concentration found to suppress growth – in experiment [1] was 16.7 µM (≈ 34.3 µg/mL); in experiment [2], 3.1 µM (≈ 6.36 µg/mL); in experiment [3] it was 4.7 µM (≈ 9.65 µg/mL); in experiment [4], 3.1 µM (≈ 6.36 µg/mL); in experiment [5] it was 12.5 µM (≈ 25.7 µg/mL); in experiment [6], 1.05 µM (≈ 2.16 µg/mL). The compound also returned an MIC in experiment [7] of 5.2 µM (≈ 10.7 µg/mL).
Take `CC[C@H](C)[C@H](N)C(=O)N[C@H](C(=O)N[C@@H](CCCCN)C(=O)N[C@H](C(=O)N[C@H](C(=O)N[C@H](C(=O)N[C@@H](CCCCN)C(=O)N[C@@H](CC(C)C)C(=O)N[C@@H](CC(C)C)C(=O)N[C@@H](CC(N)=O)C(=O)N[C@@H](CCCN=C(N)N)C(=O)N[C@@H](CC(C)C)C(=O)N[C@@H](CO)C(=O)N[C@@H](CCCCN)C(=O)N[C@H](C(=O)N[C@@H](CC(C)C)C(=O)N[C@@H](CO)C(=O)N[C@@H](CCCCN)C(=O)O)[C@@H](C)CC)[C@@H](C)O)[C@@H](C)CC)C(C)C)[C@@H](C)O` [ITKVITKLLNRLSKILSK]: the MIC in experiment [1] came out at 16.7 µM (≈ 34.5 µg/mL); in experiment [2], 2.08 µM (≈ 4.3 µg/mL); in experiment [3], 4.2 µM (≈ 8.69 µg/mL); in experiment [4], 2.8 µM (≈ 5.79 µg/mL); in experiment [5] it was 25 µM (≈ 51.7 µg/mL); in experiment [6], 1.05 µM (≈ 2.17 µg/mL). In experiment [7], this compound showed an MIC greater than 50 µM.
On to `CC[C@H](C)[C@H](NC(=O)[C@@H]1CCCN1C(=O)[C@H](CCCN=C(N)N)NC(=O)[C@H](CCCN=C(N)N)NC(=O)[C@H](CCCN=C(N)N)NC(=O)[C@@H](N)CCCN=C(N)N)C(=O)N[C@@H](CCCN=C(N)N)C(=O)N[C@@H](CCCN=C(N)N)C(=O)N[C@@H](CCCN=C(N)N)C(=O)N1CCC[C@H]1C(=O)N[C@H](C(=O)N[C@@H](CCCN=C(N)N)C(=O)N1CCC[C@H]1C(=O)N1CCC[C@H]1C(=O)N[C@@H](Cc1c[nH]c2ccccc12)C(=O)N[C@@H](Cc1ccc(O)cc1)C(=O)N[C@@H](CCCN=C(N)N)C(=O)O)[C@@H](C)CC` [RRRRPIRRRPIRPPWYR], for which the MIC with Escherichia coli BW25113 came out at 16 µM (≈ 38.2 µg/mL).
